What was measured:
Format in all cases: in vivo, rat
[1] = system: self-sustaining status epilepticus (SSSE); assay: Experiment 1a: SSSE after electrical stimulation of the perforant path (60 min stimulation); conditions: male Wistar rats, i.v. 10 min after end of 60 min perforant path stimulation; SPM 927 50 mg/kg, PHT 50 mg/kg, DZP 10 mg/kg; vs control
Method: (§1) Animals: The experiments were performed on male Wistar rats, 280-300 g (Simonsen Labs, Calif.). Animals were kept at a constant room temperature with 12 hours artificial dark-light cycle with free access to standard diet and tap water.
(§2) Surgery: Under ketamine (60 mg/kg)/xylazine (15 mg/kg) anesthesia, animals were implanted with a bipolar stimulating electrode into the angular bundle of the perforant path (4.5 mm to left lambda, 1 mm anterior to lambdoid fissure) and a bipolar recording electrode into the granule cell layer of the ipsilateral dentate gyrus (3.5 mm anterior to lambda, 2.2 mm left to sagittal fissure). Depth of both electrodes was optimized by monitoring the amplitude and waveform of the population spike evoked from the dentate gyrus by stimuli delivered through the perforant path (single square wave monophasic stimuli, 20 V, 0.1 ms delivered every 10 s).
(§3) Induction of self-sustaining status epilepticus (SSSE): Seven days after surgery, animals were connected to a Cardionics 16 channel preamplifier, which was connected to the IBM computer. After 5 minutes of baseline EEG recording, animals were stimulated in the awake state for 60 minutes (Experiment 1a) or 30 minutes (Experiments 1b and 1c) with 10 s 20 Hz trains (1 ms square wave, 20 V) delivered every minute, together with 2 Hz continuous stimulation with the same parameters.
(§4) EEG monitoring and analysis: EEG from the dentate gyrus was monitored and recorded by means of commercial software (Monitor 8.1 from Stellate Systems). The software was configured for automatic detection and saving of spikes and seizures. Monitoring was performed for 24 hrs. EEG was analyzed off line by means of the same software. Spike distribution was presented as number of spikes per 10 min epoch, and the cumulated duration of seizures for 24 hrs of monitoring were calculated. Statistical analysis was performed by means of T-test. A p value less than 0.05 was considered statistically significant.
(§5) Drug administration: SPM 927 (50 mg/kg, 5 animals), phenyloin (PHT) (50 mg/kg), fosphenyloin (F-PTH, Parke-Davis, 50 mg/kg of phenyloin equivalent, 5 animals), diazepam (DZP) (10 mg/kg) or vehicle (VEH, 10% DMSO, 6 animals) were given i.v. 10 min after the end of perforant path stimulation in a volume of 1 ml/kg.

[2] = system: self-sustaining status epilepticus (SSSE); assay: Experiment 1b: SSSE after electrical stimulation of the perforant path (30 min stimulation), SPM 927 vs fosphenyloin; conditions: male Wistar rats, 50 mg/kg i.v. 10 min after end of 30 min stimulation; for spike frequency (number of spikes/10 min): vs control
Method: as §1, §2, §3, §4, §5

[3] = system: generalized tonic-clonic seizures (GTCS) in chemically induced SSSE; assay: Experiment 2: chemically induced SSSE (cobalt/homocysteine thiolactone); conditions: for mean # GTCS: Sprague-Dawley rats
Method: Male Sprague-Dawley rats were prepared surgically with cobalt powder on the left frontal cortical surface.
Recording and stimulation protocol: Four epidural recording electrodes were arranged in a square grid (5 mm) over the cobalt lesion. EEG was monitored daily beginning 4-5 days following surgery. Status epilepticus was induced by i.p. injection of 5.5 mmol/kg homocysteine thiolactone whenever focal motor behaviour and EEG seizures were observed.
Drug administration: SPM 927 was administered (10-100 mg/kg) immediately following the second generalized tonic-clonic seizure (GTCS) occurring after homocysteine thiolactone injection.

[4] = system: hippocampal damage following SSSE; assay: Experiment 1c: hippocampal damage following SSSE (damaged neuron score); conditions: for hippocampal damage score, CA1 / hippocampal damage score, CA3 / hippocampal damage score, Hilus / hippocampal damage score, Subiculum: scale 0-5, brains collected 72 hours after SSSE
Method: as §1, §2, §3, §5
Collection of tissue: Brains were collected 72 hours after SSSE. This was accomplished by transcardial perfusion with first heparinized normal saline for about 2 minutes to largely clear the vasculature of blood and second by phosphate buffered formaldehyde (10% formaldehyde at pH 7.4) for 10 to 15 min (approximately 50 to 60 ml). Carcasses were placed in the refrigerator overnight to further firm the tissue and the brains were dissected from the heads the following day.
Preparation of brain sections for light microscopy: after Removal, the Brains were passed through a graded series of alcohol and clearing agent (Hemo-De, Fisher) and then embedded in paraffin. Serial 8 micron-thick coronal sections were cut from the embedded tissue at approximately 100 micron intervals and float mounted onto microscope slides. The sections were stained with hematoxylin and eosin and coverslipped.
Selection of sections for counting: Selection of sections for counting was controlled by the stereotaxic atlas for rats (Paxinos and Watson). The 3 sections selected for quantitation contained dorsal hippocampus and were 1.6±0.05 mm posterior to bregma.
Location of counting fields—damage to the pyramidal cell layer was assessed by counting damaged neurons in the subiculum, CA1, CA3, CA3c and the hilus in the dorsal hippocampus. The neurons were assessed individually from the beginning of the subiculum to the end of the CA3c region using an Olympus Provis Ax 70 microscope at a magnification of 40×. The CA3-CA3c transition was defined by a line connecting the extremeties of the blades of the dentate gyrus. The hilus was defined as the space located between the blades of the dentate gyrus, excluding the line of CA3c pyramids.
Criteria for differentiation of damaged versus non-damaged neurons—neurons were counted only if the majority of the nucleus was present in the section. Damaged neurons were counted if they were distinctly eosinophilic or distinctly pyknotic or both. All other cells with most of the nucleus present in the section (and counting field) were counted as not damaged. Each brain was assessed on left side and right side individually and also combined. The counting fields were individually divided into subiculum, CA1, CA3, CA3c and hilus. […]

[5] = 10 mg/kg, 30 min following treatment
[6] = 20 mg/kg, 30 min following treatment
[7] = 40 mg/kg, 30 min following treatment
[8] = 80 mg/kg, 30 min following treatment

CN1C(=O)CN=C(c2ccccc2)c2cc(Cl)ccc21 [DZP, diazepam]
cumulative seizure duration over the 24 h period [1]: potently and significantly reduced
time to the last seizure [1]: potently and significantly reduced

O=C1NC(c2ccccc2)(c2ccccc2)C(=O)N1COP(=O)(O)O [Fosphenyloin, fosphenyloin, reference compound]
time until seizures stopped after injection [2]: ≤ 15 min
spike frequency (number of spikes/10 min) [2]: significantly lower than in control animals but significantly higher than in SPM 927 treated rats

O=C1NC(=O)C(c2ccccc2)(c2ccccc2)N1 [PHT, phenyloin]
cumulative seizure duration over the 24 h period [1]: potently and significantly reduced
time to the last seizure [1]: potently and significantly reduced

COC[C@@H](NC(C)=O)C(=O)NCc1ccccc1 [SPM 927, (R)-2-acetamido-N-benzyl-3-methoxypropionamide]
interval to 1st GTCS ([3]; 10 mg/kg): 6.6 min
# rats with GTCS [3, 5]: 8/8
mean # GTCS [3, 5]: 4.8
interval to 1st GTCS ([3]; 20 mg/kg): 8.9 min
# rats with GTCS [3, 6]: 7/8
mean # GTCS [3, 6]: 2.7
interval to 1st GTCS ([3]; 40 mg/kg): 5.6 min
# rats with GTCS [3, 7]: 4/8
mean # GTCS [3, 7]: 3.8
interval to 1st GTCS ([3]; 80 mg/kg): 14.0 min
# rats with GTCS [3, 8]: 3/8
mean # GTCS [3, 8]: 2.7
# rats with GTCS ([3]; 100 mg/kg, 30 min following treatment): 0/8
number of rats experiencing GTCS ([3]; 10-100 mg/kg, 30 min following treatment): reduced in a dose-dependent fashion
seizure recurrence over the next 24 hrs [2]: did not recur
time during which a few single spikes were recorded [2]: about 12 hrs
time until seizures stopped after injection [2]: ≤ 15 min
spike frequency (number of spikes/10 min) [2]: significantly decreased
cumulative seizure duration over the 24 h period [1]: potently and significantly reduced
time to the last seizure [1]: potently and significantly reduced
hippocampal damage score, CA1 ([4]; Contralateral): 1.2 ± 0.4
hippocampal damage score, CA3 ([4]; Contralateral): 1.0 ± 0.0
hippocampal damage score, Hilus ([4]; Contralateral): 1.4 ± 0.5
hippocampal damage score, Subiculum ([4]; Contralateral): 1.0 ± 0.0
hippocampal damage score, CA1 ([4]; Ipsilateral): 1.0 ± 0.0
hippocampal damage score, CA3 ([4]; Ipsilateral): 1.0 ± 0.0
hippocampal damage score, Hilus ([4]; Ipsilateral): 1.2 ± 0.4
hippocampal damage score, Subiculum ([4]; Ipsilateral): 1.0 ± 0.0
injured neurons in any hippocampal field ([4]; treated rats following SSSE): only an occasional injured neuron

Source: US20090018197A1, “METHODS FOR TREATING STATUS E[…] RELATED CONDITIONS” (priority 2003, published 2009)
